# Columns and labels:
# [1] = system: Arabidopsis thaliana K33-1-3 and K33-2-4; experiment: Growth test in BS-containing medium, Arabidopsis transformed with Kasalath-derived CYP72A33; format: in vivo; settings: day 10 from onset of cultivation, compared to NT
# Text: In this Example, Agrobacterium as prepared in Example 4 was used to introduce HptII::35Spro::Kasalath CYP72A31::Tnos vector plasmid (pCAMBIA1390-KasCYP72A31), HptII::35Spro::Kasalath CYP72A32::Tnos vector plasmid (pCAMBIA1390-KasCYP72A32), or HptII::35Spro::Kasalath CYP72A33::Tnos vector plasmid (pCAMBIA1390-KasCYP72A33) into Arabidopsis thaliana (ecotype: Col-0) by using a floral-dip method. The floral-dip method followed a standard method. […] K31-4-2 and K31-6-5 were selected as fixed lines derived from pCAMBIA1390-KasCYP72A31; K32-1-1, K32-3-1, and K32-5-1 were selected as fixed lines derived from pCAMBIA1390-KasCYP72A32; and K33-1-3 and K33-2-4 were selected as fixed lines derived from pCAMBIA1390-KasCYP72A33. Their seeds were seeded in a medium containing each concentration of BS, and cultivated for 10 days. FIGS. 16A and 16B illustrate the results.
# Next, 15 seeds for each of non-transformed Arabidopsis thaliana (NT which is denoted by “Col-0” in FIGS. 19A-19C) and transformed plant bodies (K33-1-3 which is denoted by “K33oe-1-3” in FIGS. 19A-19C and K33-2-4 which is denoted by “K33oe-2-4” in FIGS. 19A-19C) were cultivated on a medium containing each concentration of BS. […]
# [2] = system: Wild-type rice (Nipponbare); experiment: Drug sensitivity test on gellan gum medium, wild-type rice; format: in vivo, Oryza sativa; settings: plant height compared with drug-free medium
# Procedure: Next, 1.6 g of Hoagland's mix (Sigma-Aldrich Corporation) and 3 g of Gelrite (Wako Pure Chemical Industries, Ltd.) were suspended in 1 L of distilled water. Then, the mixture was dissolved and heated in a microwave. After that, the mixture was cooled to 50 to 60 degree C., and BS was added at a final concentration of 1 μM. This mixture was dispensed into 30-mL tubular bottles at 15 mL to prepare a gellan gum medium. Next, CSSL rice paddies were soaked in 0.5% sodium hypochlorite for about 20 minutes, and were then washed well with water. These paddies were soaked in distilled water, and kept at 27 degree C. for 3 to 5 days for germination. Germinating seeds were softly planted in sprout-side up on the gellan gum medium. These samples, together with a beaker filled with distilled water, were placed in a transparent case, which was then covered with a clear-plastic wrap. These samples were grown at 27 degree C. under fluorescent light illumination (14 hours of a light period and 10 hours of a dark period) for 7 to 9 days.
# According to the method of Example 1, a gellan gum medium containing a test drug at a concentration of 0.01, 0.1, 1, or 10 μM was prepared. Rice seeds were sterilized, germinated, seeded in the medium, and cultivated.
# [3] = system: Nipponbare and Kasalath calluses with GFP overexpression construct; experiment: Callus growth test on BS-containing medium, GFP overexpression construct; format: cell-based, Oryza sativa; settings: medium containing 0.25, 0.5, or 0.75 μM BS
# Text: According to Example 5, an HptII::35Spro::Kasalath CYP72A31::Tnos vector plasmid (pCAMBIA1390-KasCYP72A31, a kasCYP72A31 overexpression construct) or, as a control, an HptII::35Spro::sGFP::Tnos vector plasmid (pCAMBIA1390-sGFP, an sGFP overexpression construct) was introduced into a rice variety (cultivars: Nipponbare and Kasalath) by using an Agrobacterium method. Transformed calluses selected with 50 ppm hygromycin were isolated, and transplanted onto a bispyribac-sodium (BS)-containing medium to examine callus growth.
# [4] = system: Rice (Nipponbare) calluses transformed with pCAMBIA1390-KasCYP72A31; experiment: Selection of drug-resistant callus in N6D medium, pCAMBIA1390-KasCYP72A31; format: cell-based, Oryza sativa; settings: 4 weeks
# Procedure: Rice transformed with pCAMBIA1390-KasCYP72A31 was used to examine whether a Kasalath-derived CYP72A31 gene was able to be used as a selection marker for transformation with BS as a selection reagent. According to Example 5, rice (Nipponbare) was transformed with pCAMBIA1390-KasCYP72A31 or pSTARA-sGFP by using an Agrobacterium method.
# Rice (Nipponbare) calluses transformed with pCAMBIA1390-KasCYP72A31 were cultured for 4 weeks in an N6D medium containing 0.1 or 0.25 μM BS or an N6D medium containing 50 ppm hygromycin to select drug-resistant calluses. Also, rice calluses transformed with pSTARA-sGFP were selected in a similar manner in an N6D medium containing 0.25 μM BS.
# [5] = system: Nipponbare calluses overexpressing Kasalath-derived or Nipponbare-derived CYP72A32 or CYP72A33; experiment: Callus growth test on BS-containing medium, CYP72A32 or CYP72A33 overexpression constructs; format: cell-based, Oryza sativa
# Text: According to Example 5, an HptII::35Spro::Kasalath CYP72A32::Tnos vector plasmid (pCAMBIA1390-KasCYP72A32, a kasCYP72A32 overexpression construct), an HptII::35 Spro::Kasalath CYP72A33::Tnos vector plasmid (pCAMBIA1390-KasCYP72A33, a kasCYP72A33 overexpression construct), an HptII::35Spro::Nipponbare CYP72A32::Tnos vector plasmid (pCAMBIA1390-nbCYP72A32, an nbCYP72A32 overexpression construct), or an HptII::35Spro::Nipponbare CYP72A33::Tnos vector plasmid (pCAMBIA1390-nbCYP72A33, an nbCYP72A33 overexpression construct) was introduced into a rice variety (a cultivar: Nipponbare) by using an Agrobacterium method. Transformed calluses selected with 50 ppm hygromycin were isolated, and transplanted onto a bispyribac-sodium (BS)-containing medium to examine callus growth.
structure (smiles),measurement,setting,value
"COc1cc(OC)nc(Oc2cccc(Oc3nc(OC)cc(OC)n3)c2C(=O)O)n1 [BS, bispyribac sodium]","BS sensitivity (germinated seeds, emerging of true leaves, fresh weight of above-ground part)",[1],BS sensitivity equivalent to NT
same,CK ratio (%),[2]; drug 0.01 μM,82%
same,CK ratio (%),[2]; drug 0.1 μM,64%
same,CK ratio (%),[2]; drug 1 μM,22%
same,CK ratio (%),[2]; drug 10 μM,3%
same,Callus growth,[3],inhibited their growth
same,Selection efficiency (ratio of the resulting transformed calluses/all calluses),[4]; N6D medium containing 0.1 μM BS,71%
same,Selection efficiency (ratio of the resulting transformed calluses/all calluses),[4]; N6D medium containing 0.25 μM BS,61%
same,Callus growth,[5],not grown
